Measured values published in patent publication US10106556B2, “Heterocyclic compound” (TAKEDA PHARMACEUTICAL COMPANY LIMITED, priority 2015, dated 2018).

Target: T1, His-hMAGL (recombinant polyhistidine tagged human MAGL protein) (Homo sapiens, UniProt Q99685)
T1 construct: made in house; host or cells: E. coli BL21(DE3)
T1 sequence (Q99685 1-303): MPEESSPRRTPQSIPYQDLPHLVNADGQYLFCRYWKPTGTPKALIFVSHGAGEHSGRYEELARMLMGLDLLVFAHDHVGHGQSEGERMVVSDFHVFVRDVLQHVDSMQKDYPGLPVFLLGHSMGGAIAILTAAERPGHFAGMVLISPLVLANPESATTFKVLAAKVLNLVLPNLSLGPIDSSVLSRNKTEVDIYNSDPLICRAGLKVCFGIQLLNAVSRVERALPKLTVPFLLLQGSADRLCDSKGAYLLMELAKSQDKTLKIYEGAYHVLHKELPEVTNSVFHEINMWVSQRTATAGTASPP
Experiment: Measurement of MAGL inhibitory activity (arachidonic acid production from 2-arachidonylglycerol, RapidFire-mass spectrometry)
Format: biochemical
Settings: MAGL inhibitory rate at 10 μM test compound; 60 min preincubation with His-hMAGL, 2-arachidonylglycerol substrate, 10 min reaction at room temperature
Summary of the method: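 Inhibition (%) was derived from arachidonic acid levels relative to enzyme-free and compound-free groups. Product was measured by online C4 solid-phase extraction and triple-quadrupole MS in negative SRM mode, corrected by arachidonic acid-d8 (3 μM in the acetonitrile added). Substrate was 2-arachidonylglycerol; enzyme was His-tagged recombinant human MAGL.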

Row | Compound | inhibition at 10 µM
1 | CC(C)(Oc1ccc(F)cc1F)C1CN(C(=O)c2cc3c(cc2F)OCC(=O)N3)C1 [Example 308, 6-((3-(2-(2,4-difluorophenoxy)propan-2-yl)azetidin-1-yl)carbonyl)-7-fluoro-2H-1,4-benzoxazin-3 (4H)-one] | 104%
2 | COCC(Oc1ccc(Cl)cc1F)C1CN(C(=O)c2cc3c(cc2F)OCC(=O)N3)C1 (stereo not drawn) [Example 309, 6-((3-(1-(4-chloro-2-fluorophenoxy)-2-methoxyethyl)azetidin-1-yl)carbonyl)-7-fluoro-2H-1,4-benzoxazin-3(4H)-one] | 98%
3 | O=C1COc2cc(F)c(C(=O)N3CC(OCc4ccc(F)cc4Cl)C3)cc2N1 [Example 322, 6-((3-((2-chloro-4-fluorobenzyl)oxy)azetidin-1-yl)carbonyl)-7-fluoro-2H-1,4-benzoxazin-3(4H)-one] | 101%
4 | O=C1COc2ccc(C(=O)N3CC(OCc4ccc(F)cc4Cl)C3)cc2N1 [Example 323, 6-((3-((2-chloro-4-fluorobenzyl)oxy)azetidin-1-yl)carbonyl)-2H-1,4-benzoxazin-3(4H)-one] | 99%
5 | O=C1COc2cc(F)c(C(=O)N3CC(OCc4ccc(Cl)cc4Cl)C3)cc2N1 [Example 324, 6-((3-((2,4-dichlorobenyzl)oxy)azetidin-1-yl)carbonyl)-7-fluoro-2H-1,4-benzoxazin-3(4H)-one] | 102%
6 | O=C1COc2ccc(C(=O)N3CC(OCc4ccc(Cl)cc4Cl)C3)cc2N1 [Example 325, 6-((3-((2,4-dichlorobenzyl)oxy)azetidin-1-yl)carbonyl)-2H-1,4-benzoxazin-3(4H)-one] | 101%
7 | O=C1COc2ccc(C(=O)N3CC(OCc4ccccc4)C3)cc2N1 [Example 326, 6-((3-(benzyloxy)azetidin-1-yl)carbonyl)-2H-1,4-benzoxazin-3(4H)-one] | 98%
8 | O=C1COc2cc(F)c(C(=O)N3CC(OCc4ccccc4)C3)cc2N1 [Example 327, 6-((3-(benzyloxy)azetidin-1-yl)carbonyl)-7-fluoro-2H-1,4-benzoxazin-3(4H)-one] | 99%
9 | COc1cccc(COC2CN(C(=O)c3cc4c(cc3F)OCC(=O)N4)C2)c1 [Example 328, 7-fluoro-6-((3-((3-methoxybenzyl)oxy)azetidin-1-yl)carbonyl)-2H-1,4-benzoxazin-3(4H)-one] | 101%
10 | Cc1cccc(COC2CN(C(=O)c3cc4c(cc3F)OCC(=O)N4)C2)c1 [Example 329, 7-fluoro-6-((3-((3-methylbenzyl)oxy)azetidin-1-yl)carbonyl)-2H-1,4-benzoxazin-3(4H)-one] | 100%
11 | O=C1COc2cc(F)c(C(=O)N3CC(OCc4ccccc4F)C3)cc2N1 [Example 330, 7-fluoro-6-((3-((2-fluorobenzyl)oxy)azetidin-1-yl)carbonyl)-2H-1,4-benzoxazin-3(4H)-one] | 102%
12 | O=C1COc2cc(F)c(C(=O)N3CC(OCc4cccc(F)c4)C3)cc2N1 [Example 331, 7-fluoro-6-((3-((3-fluorobenzyl)oxy)azetidin-1-yl)carbonyl)-2H-1,4-benzoxazin-3(4H)-one] | 100%
13 | O=C1COc2cc(F)c(C(=O)N3CC(OCc4ccc(F)cc4)C3)cc2N1 [Example 332, 7-fluoro-6-((3-((4-fluorobenzyl)oxy)azetidin-1-yl)carbonyl)-2H-1,4-benzoxazin-3(4H)-one] | 98%
14 | N#Cc1ccccc1COC1CN(C(=O)c2cc3c(cc2F)OCC(=O)N3)C1 [Example 333, 2-(((1-((7-fluoro-3-oxo-3,4-dihydro-2H-1,4-benzoxazin-6-yl)carbonyl)azetidin-3-yl)oxy)methyl) benzonitrile] | 101%
15 | N#Cc1cccc(COC2CN(C(=O)c3cc4c(cc3F)OCC(=O)N4)C2)c1 [Example 334, 3-(((1-((7-fluoro-3-oxo-3,4-dihydro-2H-1,4-benzoxazin-6-yl)carbonyl)azetidin-3-yl)oxy)methyl) benzonitrile] | 98%
16 | N#Cc1ccc(COC2CN(C(=O)c3cc4c(cc3F)OCC(=O)N4)C2)cc1 [Example 335, 4-(((1-((7-fluoro-3-oxo-3,4-dihydro-2H-1,4-benzoxazin-6-yl)carbonyl)azetidin-3-yl)oxy)methyl) benzonitrile] | 102%
17 | O=C1COc2cc(F)c(C(=O)N3CC(OCc4cccc(Cl)c4)C3)cc2N1 [Example 336, 6-((3-((3-chlorobenzyl)oxy)azetidin-1-yl)carbonyl)-7-fluoro-2H-1,4-benzoxazin-3(4H)-one] | 101%
18 | CS(=O)(=O)c1ccc(COC2CN(C(=O)c3cc4c(cc3F)OCC(=O)N4)C2)cc1 [Example 337, 7-fluoro-6-((3-((4-(methylsulfonyl)benzyl)oxy)azetidin-1-yl)carbonyl)-2H-1,4-benzoxazin-3(4H)-one] | 92%
19 | O=C1COc2cc(F)c(C(=O)N3CC(OCc4ccc(-n5cccn5)cc4)C3)cc2N1 [Example 338, 7-fluoro-6-((3-((4-(1H-pyrazol-1-yl)benzyl)oxy)azetidin-1-yl)carbonyl)-2H-1,4-benzoxazin-3(4H)-one] | 101%

Same assay, conditions: MAGL inhibitory rate at 10 μM test compound; 60 min preincubation with His-hMAGL, 2-arachidonylglycerol substrate, 10 min reaction at room temperature; 10 µM

Row | Compound | % inhibition (10 μM)
20 | CC(Oc1cccc(F)c1F)C1CN(C(=O)c2cc3c(cc2F)OCC(=O)N3)C1 (stereo not drawn) [Example 310, 6-((3-(1-(2,3-difluorophenoxy)ethyl)azetidin-1-yl)carbonyl)-7-fluoro-2H-1,4-benzoxazin-3(4H)-one] | 99%
21 | CC(Oc1cccc(F)c1F)C1CN(C(=O)c2cc3c(cc2F)OCC(=O)N3)C1 (stereo not drawn) [Example 311, 6-((3-(1-(2,3-difluorophenoxy)ethyl)azetidin-1-yl)carbonyl)-7-fluoro-2H-1,4-benzoxazin-3(4H)-one] | 103%
22 | CC(Oc1ccc(F)c(F)c1)C1CN(C(=O)c2cc3c(cc2F)OCC(=O)N3)C1 (stereo not drawn) [Example 312, 6-((3-(1-(3,4-difluorophenoxy)ethyl)azetidin-1-yl)carbonyl)-7-fluoro-2H-1,4-benzoxazin-3(4H)-one] | 101%
23 | CC(Oc1ccc(F)c(F)c1)C1CN(C(=O)c2cc3c(cc2F)OCC(=O)N3)C1 (stereo not drawn) [Example 313, 6-((3-(1-(3,4-difluorophenoxy)ethyl)azetidin-1-yl)carbonyl)-7-fluoro-2H-1,4-benzoxazin-3(4H)-one] | 103%
24 | CC(Oc1cc(F)cc(F)c1)C1CN(C(=O)c2cc3c(cc2F)OCC(=O)N3)C1 (stereo not drawn) [Example 314, 6-((3-(1-(3,5-difluorophenoxy)ethyl)azetidin-1-yl)carbonyl)-7-fluoro-2H-1,4-benzoxazin-3(4H)-one] | 98%
25 | CC(Oc1cc(F)cc(F)c1)C1CN(C(=O)c2cc3c(cc2F)OCC(=O)N3)C1 (stereo not drawn) [Example 315, 6-((3-(1-(3,5-difluorophenoxy)ethyl)azetidin-1-yl)carbonyl)-7-fluoro-2H-1,4-benzoxazin-3(4H)-one] | 102%
26 | CC(Oc1cc(F)ccc1F)C1CN(C(=O)c2cc3c(cc2F)OCC(=O)N3)C1 (stereo not drawn) [Example 319, 6-((3-(1-(2,5-difluorophenoxy)ethyl)azetidin-1-yl)carbonyl)-7-fluoro-2H-1,4-benzoxazin-3(4H)-one] | 101%
27 | CC(Oc1cc(F)ccc1F)C1CN(C(=O)c2cc3c(cc2F)OCC(=O)N3)C1 (stereo not drawn) [Example 320, 6-((3-(1-(2,5-difluorophenoxy)ethyl)azetidin-1-yl)carbonyl)-7-fluoro-2H-1,4-benzoxazin-3(4H)-one] | 100%
